Measurements from US9303027B2 (dated 2016).
Structures can show the parent of a compound that is named as a salt.

Row | Structure (SMILES) | melting point [°C]
1 | O=C(O)c1ccc(C2(C(=O)N[C@H](CN3CCCC3)c3ccccc3)CC2)cc1 | 134 to 136
2 | CS(=O)(=O)Nc1cccc(C2(C(=O)N[C@H](CN3CCCC3)c3cccc(OCC(=O)O)c3)CC2)c1 | 160 to 162
3 | CN(C(=O)C1(c2ccccc2)CCC1)[C@H](CN1CCCC1)c1ccccc1.Cl | 234 to 235
4 | O=C(N[C@H](CN1CCCC1)c1ccccc1)C1(c2nc3ccccc3s2)CC1 | 97 to 99
5 | CS(=O)(=O)Nc1ccc(C2(C(=O)N[C@H](CN3CCCC3)c3ccccc3)CC2)cc1 | 165 to 168
6 | CS(=O)(=O)Nc1cccc(C2(C(=O)N[C@H](CN3CCCC3)c3ccccc3)CC2)c1 | 146 to 148
7 | CN(C(=O)C1(c2ccccc2)CCCC1)[C@H](CN1CCCC1)c1ccccc1.Cl | 220 to 221
8 | Cl.O=C(N[C@H](CN1CCCC1)c1ccccc1)C1(c2cccc(OCc3ccccc3)c2)CC1 | 118 to 120
9 | CS(=O)(=O)Oc1ccc(C2(C(=O)N[C@H](CN3CC[C@H](O)C3)c3ccccc3)CC2)cc1.Cl | 60 to 62
10 | CN(C(=O)C1(c2ccccc2)CCCCC1)[C@H](CN1CCCC1)c1ccccc1.Cl | 232 to 233
11 | CN(C(=O)C1(c2ccccc2)CC1)[C@H](CN1CCCC1)c1ccccc1.Cl | 216 to 217
12 | O=C(N[C@H](CN1CC[C@H](O)C1)c1ccccc1)C1(c2ccncc2)CC1 | 112 to 114
13 | CS(=O)(=O)c1ccc(C2(C(=O)N[C@H](CN3CCCC3)c3ccccc3)CC2)cc1 | 150 to 152
14 | CN(C(=O)C1(c2cnc3ccccc3c2)CC1)[C@H](CN1CCCC1)c1ccccc1.Cl | 223 to 225
15 | CN(C)S(=O)(=O)c1ccccc1C1(C(=O)N[C@H](CN2CCCC2)c2ccccc2)CC1 | 80 to 81
16 | CS(=O)(=O)c1cccc(C2(C(=O)N[C@H](CN3CCCC3)c3ccccc3)CC2)c1.Cl | 68 to 70
17 | CS(=O)(=O)Nc1cc(C2(C(=O)N[C@H](CN3CCCC3)c3ccccc3)CC2)ccc1Cl | 280 to 281
18 | CC(C)(C)OC(=O)N[C@H]1CCN(C[C@@H](NC(=O)C2(c3cccc(NS(C)(=O)=O)c3)CC2)c2ccccc2)C1 | 66.3 to 66.5
19 | CN[C@H]1CCN(C[C@@H](NC(=O)C2(c3cccc(NS(C)(=O)=O)c3)CC2)c2ccccc2)C1 | 80.6 to 80.8
20 | Cl.O=C(N[C@H](CN1CCCC1)c1ccccc1)C1(c2ccccc2)CCCCC1 | 204 to 205
21 | O=C(N[C@H](CN1CCCC1)c1ccccc1)C1(c2ccc3c(c2)NS(=O)(=O)O3)CC1 | 239 to 241
22 | CS(=O)(=O)Nc1cccc(C2(C(=O)N[C@H](CN3CCCC3)C3CCCCC3)CC2)c1 | 201 to 202

Row | Structure (SMILES) | melting point [°C]
23 | Cl.O=C(N[C@H](CN1CCCC1)c1ccccc1)C1(c2cccnc2)CC1 | 150 to 152
24 | CS(=O)(=O)Nc1cccc(C2(C(=O)N[C@@H](CN3CCCC3)c3cccc(OCc4ccccc4)c3)CC2)c1 | 70 to 72
25 | Cl.O=C(N[C@H](CN1CCCC1)c1ccccc1)C1(c2cnc3ccccc3c2)CC1 | 176 to 178
26 | O=C(N[C@H](CN1CCCC1)c1ccccc1)C1(c2ccc3c(c2)NS(=O)(=O)C3)CC1 | 138 to 140
27 | Cl.O=C(N[C@H](CN1CCCC1)c1ccccc1)C1(c2ccccn2)CC1 | 107.1 to 107.3
28 | O=C(N[C@H](CN1CCCC1)c1ccccc1)C1(c2ccc3c(c2)NS(=O)(=O)C=C3)CC1 | 148 to 150
29 | CS(=O)(=O)Nc1ccc(C2(C(=O)N[C@H](CN3CCCC3)c3ccccc3)CC2)cn1 | 182.2 to 182.4
30 | O=C(N[C@H](CN1CCCC1)c1ccccc1)C1(c2ccc3c(c2)C=CS(=O)(=O)N3)CC1 | 163 to 165
31 | CS(=O)(=O)Nc1cccc(C2(C(=O)N[C@H](CN3CC[C@H](N)C3)c3ccccc3)CC2)c1 (as salt: trifluoroacetate) | 119.6 to 119.8
32 | COc1ccc(C2(C(=O)N[C@H](CN3CCCC3)c3ccccc3)CC2)cc1NS(C)(=O)=O (stereo in doubt) | 103 to 105
33 | Cc1cc(C2(C(=O)N[C@H](CN3CCCC3)c3ccccc3)CC2)ccc1NS(C)(=O)=O (stereo in doubt) | 92 to 94
34 | Cc1ccc(C2(C(=O)N[C@H](CN3CCCC3)c3ccccc3)CC2)cc1NS(C)(=O)=O (stereo in doubt) | 92 to 94
35 | CS(=O)(=O)Nc1cc(C2(C(=O)N[C@H](CN3CCCC3)c3ccccc3)CC2)ccc1F (stereo in doubt) | 67 to 69
36 | NC(=O)c1cccc(C2(C(=O)N[C@H](CN3CCCC3)c3ccccc3)CC2)c1 (stereo in doubt) | 120 to 121
37 | CS(=O)(=O)Nc1cc(C2(C(=O)N[C@H](CN3CCCC3)c3ccccc3)CC2)c(F)cc1F (stereo in doubt) | 81.2 to 81.4
38 | C/C(=N/O)c1cc(C2(C(=O)N[C@H](CN3CCCC3)c3ccccc3)CC2)ccc1O (stereo in doubt) | 158.5 to 158.8
39 | Cn1nnc2cc(C3(C(=O)N[C@H](CN4CCCC4)c4ccccc4)CC3)ccc21 (stereo in doubt) | 78 to 80
40 | O=C(O)COc1cccc(C2(C(=O)N[C@H](CN3CCCC3)c3ccccc3)CC2)c1 (stereo in doubt) | 124 to 125
41 | NC(=O)c1ccc(C2(C(=O)N[C@H](CN3CCCC3)c3ccccc3)CC2)cc1 (stereo in doubt) | 201
42 | CS(=O)(=O)Nc1cc(C2(C(=O)N[C@H](CN3CCCC3)c3ccccc3)CC2)ccc1F.Cl (stereo in doubt) | 130
43 | O=C(O)COc1ccc(C2(C(=O)N[C@H](CN3CCCC3)c3ccccc3)CC2)cc1 (stereo in doubt) | 94 to 95

More lines, now with the values ahead:

Row | melting point [°C] | Structure (SMILES)
44 | 92 to 94 | COc1cccc([C@@H](CN2CCCC2)NC(=O)C2(c3ccc4oc(=O)[nH]c4c3)CC2)c1
45 | 142 to 144 | O=C(N[C@H](CN1CC[C@H](O)C1)c1ccccc1)C1(c2ccc3oc(=O)[nH]c3c2)CC1
46 | 166 to 168 | Cl.O=C(O)Cn1c(=O)oc2ccc(C3(C(=O)N[C@H](CN4CCCC4)c4ccccc4)CC3)cc21
47 | 139 to 141 | NC(=O)c1cccc([C@@H](CN2CCCC2)NC(=O)C2(c3ccc4oc(=O)[nH]c4c3)CC2)c1
48 | 94 to 96 | O=C(N[C@H](CN1CCCC1)c1cccc(OCc2ccccc2)c1)C1(c2ccc3oc(=O)[nH]c3c2)CC1
49 | 132 to 134 | O=C(N[C@H](CN1CCCC1)c1cccc(O)c1)C1(c2ccc3oc(=O)[nH]c3c2)CC1
50 | 107 to 109 | O=C(N[C@H](CN1CCCC1)c1cccc(-c2nn[nH]n2)c1)C1(c2ccc3oc(=O)[nH]c3c2)CC1
51 | 125 to 127 | COc1cccc([C@@H](CN2CC[C@H](O)C2)NC(=O)C2(c3ccc4oc(=O)[nH]c4c3)CC2)c1
52 | 119 to 120 | COC(=O)c1ccc(Cn2c(=O)oc3ccc(C4(C(=O)N[C@H](CN5CCCC5)c5cccc(O)c5)CC4)cc32)cc1
53 | 112 to 113 | COC(=O)c1cccc(Cn2c(=O)oc3ccc(C4(C(=O)N[C@H](CN5CCCC5)c5cccc(O)c5)CC4)cc32)c1
54 | 224 to 226 | O=C(N[C@H](CN1CC[C@H](O)C1)c1cccc([N+](=O)[O-])c1)C1(c2ccc3oc(=O)[nH]c3c2)CC1
55 | 115 to 118 | O=C1Cc2ccc(C3(C(=O)N[C@H](CN4CCCC4)c4ccccc4)CC3)cc2N1
56 | 80 to 82 | Cl.O=C(N[C@H](CN1CCCC1)c1ccccc1)C1(c2cccc(O)c2)CC1
57 | 171 to 172 | O=C(N[C@H](CN1CCCC1)c1ccccc1)C1(c2ccc3[nH]c(=O)ccc3c2)CC1
58 | 103 to 105 | CS(=O)(=O)Nc1cccc(C2(C(=O)N[C@@H](CN3CCCC3)c3cccc(O)c3)CC2)c1
59 | 129 to 130 | O=C(N[C@H](CN1CCCC1)c1ccccc1)C1(c2ccc3oncc3c2)CC1

Row | melting point [°C] | Structure (SMILES)
60 | 101 to 103 | CS(=O)(=O)Oc1cccc([C@@H](CN2CCCC2)NC(=O)C2(c3ccc4oc(=O)[nH]c4c3)CC2)c1 (as salt: trifluoroacetate)
61 | 96 to 98 | Cn1c(=O)oc2ccc(C3(C(=O)N[C@H](CN4CCCC4)c4ccccc4)CC3)cc21 (stereo in doubt)
62 | 106 to 108 | N#Cc1cccc([C@@H](CN2CCCC2)NC(=O)C2(c3ccc4oc(=O)[nH]c4c3)CC2)c1 (stereo in doubt)
63 | 95 to 97 | Nc1cccc([C@@H](CN2CCCC2)NC(=O)C2(c3ccc4oc(=O)[nH]c4c3)CC2)c1 (stereo in doubt)
64 | 129 to 130 | N#Cc1cccc(COc2cccc([C@@H](CN3CCCC3)NC(=O)C3(c4ccc5oc(=O)[nH]c5c4)CC3)c2)c1 (stereo in doubt)
65 | 88 to 89 | N#Cc1ccc(COc2cccc([C@@H](CN3CCCC3)NC(=O)C3(c4ccc5oc(=O)[nH]c5c4)CC3)c2)cc1 (stereo in doubt)
66 | 114 to 116 | CS(=O)(=O)Nc1cccc([C@@H](CN2CCCC2)NC(=O)C2(c3ccc4oc(=O)[nH]c4c3)CC2)c1 (stereo in doubt)
67 | 101.8 to 102.2 | CC(=O)c1cc(C2(C(=O)N[C@H](CN3CCCC3)c3ccccc3)CC2)ccc1O (stereo in doubt)
68 | 142 to 144 | O=C(N[C@H](CN1CCCC1)c1ccccc1)C1(c2ccc3oc(=O)[nH]c3c2)CC1 (stereo in doubt)
69 | 158.5 to 158.8 | Cc1noc2ccc(C3(C(=O)N[C@H](CN4CCCC4)c4ccccc4)CC3)cc12 (stereo in doubt)
70 | 175 to 177 | O=CNc1cc(C2(C(=O)N[C@H](CN3CCCC3)c3ccccc3)CC2)ccc1O (stereo in doubt)
71 | 207 to 209 | O=C(N[C@H](CN1CCCC1)c1ccccc1)C1(c2ccc3[nH]c(=O)[nH]c3c2)CC1 (stereo in doubt)
72 | 101 to 103 | O=C(N[C@H](CN1CCCC1)c1ccccc1)C1(c2ccc3ccc(=O)[nH]c3c2)CC1 (stereo in doubt)
73 | 127 to 129 | O=C(N[C@H](CN1CCCC1)c1ccccc1)C1(c2ccc3[nH]cnc3c2)CC1 (stereo in doubt)
74 | 82 to 83 | O=C(N[C@H](CN1CCCC1)c1ccccc1)C1(c2ccc3[nH]ncc3c2)CC1 (stereo in doubt)
